Reference: patent publication US9334265B2, “3-amino-pyrazole derivatives useful against tuberculosis” (GLAXO GROUP LIMITED, priority 2010, dated 2016)
Where two headings read alike, the source gives them in different places.

Columns and labels:
[1] = tested on: Mycobacterium tuberculosis H37Rv; assay: Mycobacterium tuberculosis H37Rv Inhibition Assay (Whole Cell Assay); format: cell-based; settings: ATCC 25618 / H37Rv, H37Rv strain (ATCC25618), Middlebrook 7H9, six days at 37° C., resazurin fluorescence after 48 hours
InhA = molecular target: T1, InhA (Mycobacterium tuberculosis, UniProt P9WGR1); assay: Mycobacterium tuberculosis InhA Inhibition Assay (Enzyme Assay); format: biochemical; settings: 5 nM InhA, 50 μM DDCoA, 50 μM NADH, PIPES buffer pH 6.8, initial velocities of NADH consumption
T1 construct: made in house; host or cells: E. coli
T1 sequence (P9WGR1 whole entry, looked up): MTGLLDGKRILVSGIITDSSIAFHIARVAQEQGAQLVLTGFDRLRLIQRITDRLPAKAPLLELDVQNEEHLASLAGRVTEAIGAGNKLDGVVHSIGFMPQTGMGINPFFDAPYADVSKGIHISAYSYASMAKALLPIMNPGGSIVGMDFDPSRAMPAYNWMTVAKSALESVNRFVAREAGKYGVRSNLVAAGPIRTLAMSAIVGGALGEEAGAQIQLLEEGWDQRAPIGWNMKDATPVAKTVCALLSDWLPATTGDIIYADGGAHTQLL
Method: InhA is able to reduce 2-trans enoyl-CoA esters with concomitant oxidation of NADH to NAD^+. The assay format is based on the kinetic detection of NADH consumption.
Assay for InhA inhibition is carried out with mycobacterium recombinant protein expressed and purified form E. coli. Standard assay conditions for the determination of kinetic constants and inhibitors activity use 5 nM of InhA, 50 μM of Dodecenoyl-CoA synthesized and purified as described by Quémard et al (DDCoA) and 50 μM of NADH as substrates, and it is carried out in 30 mM PIPES buffer pH 6.8, containing 0.05% of BSA. […] Triclosan is used as positive control in every experiment. One μl of compounds is added to the wells containing 25 μl of the DDCoA+NADH mix, the reaction is started by adding 50 μl of the enzyme solution. Fluorescence from NADH is followed at room temperature during 20 minutes in a fluorescent plate reader (excitation at 340 nm; emission at 480 nm). IC50 values are determined using initial velocities of NADH consumption. • Quémard A, Sacchettini J C, Dessen A, et al. Enzymatic characterization of the target for isoniazid in Mycobacterium tuberculosis. Biochemistry 1995; 34:8235-41. Results of the Mycobacterium tuberculosis InhA Inhibition Assay (Enzyme Assay)

Row | SMILES | MIC [1] | IC50 (InhA; read-out: IC50 value) | IC50 (InhA; IC50 value)
1 | Cc1csc(C(C)(O)c2nnc(Nc3ccn(Cc4cccc5cccnc45)n3)s2)n1 (centres unmarked) [Example 20, 1-(4-methyl-1,3-thiazol-2-yl)-1-(5-{[1-(8-quinolinylmethyl)-1H-pyrazol-3-yl]amino}-1,3,4-thiadiazol-2-yl)ethanol] | ≤ 4 µM | ≤ 0.111 µM | –
2 | Cc1cc(C)n(C(C)c2nnc(Nc3ccn(C(C)c4ncccc4F)n3)s2)n1 (centres unmarked) [Example 35, 5-[1-(3,5-dimethyl-1H-pyrazol-1-yl)ethyl]-N-{1-[1-(3-fluoro-2-pyridinyl)ethyl]-1H-pyrazol-3-yl}-1,3,4-thiadiazol-2-amine] | > 10 µM | ≤ 0.121 µM | –
3 | Cc1cc(C)n(C(C)c2nnc(Nc3ccn(Cc4nccc(C)c4F)n3)s2)n1 (centres unmarked) [Example 2, 5-[1-(3,5-dimethyl-1H-pyrazol-1-yl)ethyl]-N-{1-[(3-fluoro-4-methyl-2-pyridinyl)methyl]-1H-pyrazol-3-yl}-1,3,4-thiadiazol-2-amine] | ≤ 4 µM | ≤ 0.121 µM | –
4 | Cc1ccn(C(C)c2nnc(Nc3ccn(Cc4c(C)noc4C)n3)s2)n1 (centres unmarked) [Example 27, N-{1-[(3,5-dimethyl-4-isoxazolyl)methyl]-1H-pyrazol-3-yl}-5-[1-(3-methyl-1H-pyrazol-1-yl)ethyl]-1,3,4-thiadiazol-2-amine] | > 10 µM | – | > 1.3 µM
5 | Cc1csc(C(C)(O)c2nnc(Nc3ccn(Cc4cnn(C)c4)n3)s2)n1 (centres unmarked) [Example 25, 1-[5-({1-[(1-methyl-1H-pyrazol-4-yl)methyl]-1H-pyrazol-3-yl}amino)-1,3,4-thiadiazol-2-yl]-1-(4-methyl-1,3-thiazol-2-yl)ethanol] | > 10 µM | – | 0.248 to 1.24 µM
6 | Cc1cc(C)n(C(C)c2nnc(Nc3ccn(Cc4ncccc4F)n3)s2)n1 (centres unmarked) [Example 6, 5-[1-(3,5-dimethyl-1H-pyrazol-1-yl)ethyl]-N-{1-[(3-fluoro-2-pyridinyl)methyl]-1H-pyrazol-3-yl}-1,3,4-thiadiazol-2-amine] | ≤ 4 µM | ≤ 0.125 µM | –
7 | Cc1csc(C(C)(O)c2nnc(Nc3ccn(Cc4ncccc4F)n3)s2)n1 (racemic) [Example 38, 1-[5-({1-[(3-fluoro-2-pyridinyl)methyl]-1H-pyrazol-3-yl}amino)-1,3,4-thiadiazol-2-yl]-1-(4-methyl-1,3-thiazol-2-yl)ethanol] | ≤ 1 µM | ≤ 0.12 µM | –
8 | Cc1ccn(C(C)c2nnc(Nc3ccn(Cc4ncccc4F)n3)s2)n1 (racemic) [Example 13, N-{1-[(3-fluoro-2-pyridinyl)methyl]-1H-pyrazol-3-yl}-5-[1-(3-methyl-1H-pyrazol-1-yl)ethyl]-1,3,4-thiadiazol-2-amine] | ≤ 4 µM | ≤ 0.13 µM | –
9 | CCOc1cccc(Cn2ccc(Nc3nnc(C(C)n4nc(C)cc4C)s3)n2)n1 (centres unmarked) [Example 36, 5-[1-(3,5-dimethyl-1H-pyrazol-1-yl)ethyl]-N-(1-{[6-(ethyloxy)-2-pyridinyl]methyl}-1H-pyrazol-3-yl)-1,3,4-thiadiazol-2-amine] | > 10 µM | ≤ 0.118 µM | –
10 | Cc1ccn([C@@H](C)c2nnc(Nc3ccn(Cc4ncccc4F)n3)s2)n1 (single isomer, unassigned) [Example 40] | ≤ 4 µM | – | ≤ 0.13 µM
11 | Cc1csc(C(C)(O)c2nnc(Nc3ccn(Cc4csc(C)n4)n3)s2)n1 (racemic) [Example 21, 1-(4-methyl-1,3-thiazol-2-yl)-1-[5-({1-[(2-methyl-1,3-thiazol-4-yl)methyl]-1H-pyrazol-3-yl}amino)-1,3,4-thiadiazol-2-yl]ethanol] | ≤ 1 µM | ≤ 0.119 µM | –
12 | Cc1csc(C(C)(O)c2nnc(Nc3ccn(Cc4nccc(C)c4F)n3)s2)n1 (centres unmarked) [Example 37, 1-[5-({1-[(3-fluoro-4-methyl-2-pyridinyl)methyl]-1H-pyrazol-3-yl}amino)-1,3,4-thiadiazol-2-yl]-1-(4-methyl-1,3-thiazol-2-yl)ethanol] | ≤ 4 µM | ≤ 0.116 µM | –
13 | CCc1csc(C(C)(O)c2nnc(Nc3ccn(Cc4csc(C)n4)n3)s2)n1 (centres unmarked) [Example 47, 1-(4-ethylthiazol-2-yl)-1-(5-((1-((2-methylthiazol-4-yl)methyl)-1H-pyrazol-3-yl)amino)-1,3,4-thiadiazol-2-yl)ethanol] | ≤ 1 µM | – | ≤ 0.115 µM
14 | Cc1csc(C(C)(O)c2nnc(Nc3ccn(Cc4ncc(F)cc4F)n3)s2)n1 (centres unmarked) [Example 12, 1-[5-({1-[(3,5-difluoro-2-pyridinyl)methyl]-1H-pyrazol-3-yl}amino)-1,3,4-thiadiazol-2-yl]-1-(4-methyl-1,3-thiazol-2-yl)ethanol] | ≤ 4 µM | – | 0.115 to 0.23 µM
15 | Cc1csc(C(C)(O)c2nnc(Nc3ccn(Cc4cccc(F)n4)n3)s2)n1 (centres unmarked) [Example 18, 1-[5-({1-[(6-fluoro-2-pyridinyl)methyl]-1H-pyrazol-3-yl}amino)-1,3,4-thiadiazol-2-yl]-1-(4-methyl-1,3-thiazol-2-yl)ethanol] | ≤ 1 µM | ≤ 0.12 µM | –
16 | Cc1csc(C(C)(O)c2nnc(Nc3ccn(Cc4ccc5ccccc5n4)n3)s2)n1 (centres unmarked) [Example 15, 1-(4-methyl-1,3-thiazol-2-yl)-1-(5-{[1-(2-quinolinylmethyl)-1H-pyrazol-3-yl]amino}-1,3,4-thiadiazol-2-yl)ethanol] | ≤ 4 µM | ≤ 0.111 µM | –
17 | Cc1ccn([C@H](C)c2nnc(Nc3ccn(Cc4ncccc4F)n3)s2)n1 (single isomer, unassigned) [Example 39] | > 10 µM | – | 0.26 to 1.3 µM
18 | CCOc1cnc(Cn2ccc(Nc3nnc(C(C)(O)c4nc(C)cs4)s3)n2)c(F)c1 (centres unmarked) [Example 30, 1-{5-[(1-{[5-(ethyloxy)-3-fluoro-2-pyridinyl]methyl}-1H-pyrazol-3-yl)amino]-1,3,4-thiadiazol-2-yl}-1-(4-methyl-1,3-thiazol-2-yl)ethanol] | > 10 µM | – | 0.217 to 1.08 µM
19 | Cc1csc([C@@](C)(O)c2nnc(Nc3ccn(Cc4ncccc4F)n3)s2)n1 (single isomer, unassigned) [Example 42] | > 10 µM | – | 0.24 to 1.2 µM
